Reference: PubChem BioAssay (NCI)
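Interpolation was linear, between the two tested concentrations surrounding the appropriate level; five concentrations were tested over 48 hours in 96-well plates. TGI marks complete inhibition of growth.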

Key:
Assay in all cases: NCI-60 cell line screen, 48 h
A549 NSCLC = tested on: A549 NSCLC
CAKI-1 renal = tested on: CAKI-1 renal
DLD-1 colon = tested on: DLD-1 colon
DMS 114 small cell lung = tested on: DMS 114 small cell lung
DMS 273 small cell lung = tested on: DMS 273 small cell lung
HOP-18 NSCLC = tested on: HOP-18 NSCLC
KM20L2 colon = tested on: KM20L2 colon
LXFL 529 NSCLC = tested on: LXFL 529 NSCLC
M19-MEL melanoma = tested on: M19-MEL melanoma
MALME-3M melanoma = tested on: MALME-3M melanoma
NCI-H522 lung = tested on: NCI-H522 lung
OVCAR-8 ovarian = tested on: OVCAR-8 ovarian
RXF 393 renal = tested on: RXF 393 renal
SNB-78 CNS = tested on: SNB-78 CNS
SR leukemia = tested on: SR leukemia
XF 498 CNS = tested on: XF 498 CNS
MDA-N = tested on: MDA-N
RXF-631 renal = tested on: RXF-631 renal

| SMILES | TGI (A549 NSCLC) [µM] | TGI (CAKI-1 renal) [µM] | TGI (DLD-1 colon) [µM] | TGI (DMS 114 small cell lung) [µM] | TGI (DMS 273 small cell lung) [µM] | TGI (HOP-18 NSCLC) [µM] | TGI (KM20L2 colon) [µM] | TGI (LXFL 529 NSCLC) [µM] | TGI (M19-MEL melanoma) [µM] | TGI (MALME-3M melanoma) [µM] | TGI (NCI-H522 lung) [µM] | TGI (OVCAR-8 ovarian) [µM] | TGI (RXF 393 renal) [µM] | TGI (SNB-78 CNS) [µM] | TGI (SR leukemia) [µM] | TGI (XF 498 CNS) [µM] | TGI (MDA-N) [µM] | TGI (RXF-631 renal) [µM] |
| --- | --- | --- | --- | --- | --- | --- | --- | --- | --- | --- | --- | --- | --- | --- | --- | --- | --- | --- |
| CCN(CC)CC(C(C)=O)C(c1ccccc1)c1c(O)c2ccccc2oc1=O (configuration not stated) | > 100 | > 100 | > 100 | > 100 | > 100 | > 100 | > 100 | > 100 | > 100 | > 100 | > 100 | > 100 | > 100 | > 100 | > 100 | > 100 |  |  |
| COc1cc2c(cc1OC)C1CN3CCCC3C(O)C1c1cc(OC)c(OC)cc1-2 (configuration not stated) | > 100 | > 100 |  |  |  |  |  |  |  | > 100 | > 100 | > 100 | > 100 |  | > 100 |  | > 100 |  |
| COC1(OC)CCCCCCCCC(OC)(OC)CCCCCCCC1 | > 100 | > 100 |  |  |  |  |  |  |  | > 100 | > 100 | > 100 | > 100 |  | > 100 |  | > 100 |  |
| O=c1c2ccccc2nc(-c2ccccc2)n1/N=C/c1ccccc1[N+](=O)[O-] | > 100 | > 100 |  |  |  |  |  |  |  | > 100 | > 100 | > 100 | 80.4 |  | > 100 |  | > 100 |  |
| Cc1c(N)c(C#N)c2n(C)c3ncccc3n2c1=O | > 100 | > 100 | > 100 |  | > 100 | > 100 | > 100 | > 100 | > 100 | > 100 | > 100 | > 100 | > 100 | > 100 | > 100 | > 100 |  |  |
| CC(NC1=NCCO1)c1ccsc1 (configuration not stated) | > 100 | > 100 |  |  |  |  |  |  |  | 58 | 35 | 77.7 | 85.8 |  | 99.6 |  | 65.8 |  |
| CSc1ccccc1NC1=NCCO1 | > 100 | > 100 |  |  |  |  |  |  |  | > 100 | > 100 | > 100 | > 100 |  | > 100 |  | > 100 |  |
| CC(O)C1(O)C(O)CC(OC2c3cc4c(c(O)c3[C@@H]3C[C@@]2(C)OC32C=c3cc[nH]c3=N2)C(=O)c2cccc(O)c2C4=O)OC1C (some centres not stated) | 4.4 | 5.51 |  |  |  |  |  |  |  | 2.15 | 1.09 | 4.75 | 2.31 |  | 2.36 |  | 3.41 |  |
| COc1cc2c(SCCN(C)C)nc3ccccc3c2c2ccccc12 | 3.08 | 3.87 |  |  |  |  |  |  |  | 3.99 | 2.79 |  | 4.29 |  | 4.42 |  | 4.87 |  |
| CN1CCOC1(C)c1ccccc1 (configuration not stated) | > 100 | > 100 |  |  |  |  |  |  |  | > 100 | > 100 | > 100 | > 100 |  | > 100 |  | > 100 |  |
| CC12CCC(=O)N1[C@@H](c1ccccc1)[C@@H](c1ccccc1)O2 (some centres not stated) | > 100 | > 100 | > 100 | > 100 |  |  | > 100 | > 100 | > 100 | > 100 | > 100 | > 100 |  |  |  | > 100 |  |  |
| COC(=O)c1ccccc1/C=C1\Cc2ccc3c(c2C1=O)CCC3 | > 100 | > 100 |  |  |  |  |  |  |  | > 100 | > 100 | > 100 | > 100 |  | > 100 |  | > 100 |  |
| [N-]=[N+]=NC1(Cc2ccccc2)C(=O)Nc2ccccc2C1=O (configuration not stated) | > 100 | > 100 | > 100 | > 100 | > 100 | > 100 | > 100 | > 100 | > 100 | > 100 | > 100 | > 100 |  | > 100 | > 100 | > 100 |  |  |
| COC(=O)c1cc(C#N)[nH]c1-c1ccc(Br)s1 | 23 | > 50.7 |  |  |  |  |  |  |  | 19.7 | 19.6 | 27.1 | 19.4 |  | > 51.9 |  | 27.9 |  |
| CC1(C)COC(c2cccc(C(O)c3ccc(Cl)cc3)c2)=N1 (configuration not stated) |  | 87.1 |  |  |  |  |  |  |  | 59.9 | > 100 | 42.3 | 37.8 |  | > 100 |  | 70 |  |
| Cc1cc(N(C)c2ccccc2)nc(N(C)c2ccccc2)n1 | > 100 | > 100 |  |  |  |  |  |  |  | 55.8 | > 100 | > 100 | 59.5 |  | 55.5 |  | > 100 |  |
| CC(=O)n1nc(-c2[nH]c(C)c(-c3nn(C(C)=O)c(=S)o3)c2C)oc1=S | > 100 | > 100 |  |  |  |  |  |  |  | > 96.6 | > 100 | > 100 | > 100 |  | > 100 |  | > 100 |  |
| COC(=O)CSc1cc(Cl)c(C)cc1S(=O)(=O)Nc1n[nH]c(N)n1 | > 10 | > 10 |  |  |  |  |  |  |  | > 10 | > 10 | > 10 | > 10 |  | > 10 |  | > 10 |  |
| Cc1cc(N(CCC#N)CCC#N)ccc1/C(Sc1ccccc1)=C(\NC(=O)/C=C/c1ccccc1)C(=O)Sc1ccccc1 | 16 | 12.1 | 9.95 | 4.53 | 26.2 | 51.1 | 8.09 | 12.6 | 14.7 | 25 | 1.82 | 18.6 | 4.5 | 24.6 | > 31.5 | 30.4 |  | > 32.2 |
| CC(=O)OC1CCn2c1nc1c2C(=O)C=C(N2CC2)C1=O (configuration not stated) | 6.25 | 0.124 |  |  |  |  |  |  |  | 0.0872 | 0.124 | 1.57 | 0.241 |  | 0.346 |  | 1.06 |  |
